Like-named read-outs stand apart in the source and are kept apart here.
Columns and labels:
[1] = test system: OE21 oesophageal cancer cells; test: MTT test, overall cell growth, OE21; assay type: cell-based, human
How it was run: (§1)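 Glioma (Hs683, T98G, U373) and oesophageal (OE21, OE33) lines seeded at 5,000–8,000 cells/well, treated 24 h later with compound at 1×10^−8 to 1×10^−4 M for 72 h at 37 °C, in sestuplicate.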

[2] = test system: human cancer cell lines (U373, T98G, Hs683, OE21, OE33); test: MTT test, mean over the cancer cell lines; assay type: cell-based
How it was run: as §1

T98G glioma cells = test: MTT test, overall cell growth, T98G; assay type: cell-based, human; details: 72 hours of incubation
How it was run: as §1

Hs683 glioma cells = test: MTT test, overall cell growth, Hs683; assay type: cell-based, human
How it was run: as §1

DYRK1A protein kinase = DYRK1A protein kinase (Homo sapiens (Human), UniProt Q13627); test: Radiometric protein kinase assay (33PanQinase Activity Assay); assay type: biochemical; details: 10 concentrations in triplicate, 1 μM ATP; read-out: IC50: Concentration of drug (μM) needed in order to inhibit dyrk1A kinase activity by 50%
Experimental: The IC50 profile of JR212, JR220, JR84, CV12, CV24, and JR95 was determined on DYRK1A protein kinase. […] Compound cv12 was tested in the range from about 5×10^−5 M to about 1.5×10^−9 M in triplicate.
A radiometric protein kinase assay (33PanQinase® Activity Assay) was used for measuring the kinase activity of DYRK1A protein kinase. All kinase assays were performed in 96-well FlashPlates™ from Perkin Elmer (Boston, Mass., USA) in a 50 μl reaction volume. The reaction cocktail was pipetted in four steps in the following order: 20 μl of assay buffer (standard buffer); 5 μl of [γ-33P]-ATP solution (in H2O); 5 μl of test compound (in 10% DMSO); 10 μl of substrate/10 μl of enzyme solution (premixed).
The assay contained 60 mM HEPES-NaOH, pH 7.5, 3 mM MgCl2, 3 mM MnCl2, 3 μM Na-orthovanadate, 1.2 mM DTT, 50 μg/ml PEG20000, 1 μM [γ-^33P]-ATP (approx. 3×10^5 cpm per well), protein kinase, and substrate.
For the determination of inhibitory profiles, DYRK1A protein kinase was used, which was purchased from Invitrogen Corporation. The kinase was expressed in […] as human recombinant GST-fusion protein by means of the baculovirus expression system. According to the data sheet, the purity of the kinase was checked by SDS-PAGE/Coomassie staining and the identity of the kinase was verified by mass spectroscopy. About 5 ng/50 μl (about 0.9 nM) of dyrk1A kinase and about 2000 ng/50 μl of substrate (RBER-CHKtide) are used in each assay.
The reaction cocktails were incubated at 30° C. for 60 minutes. The reaction was stopped with 50 μl of 2% (v/v) H3PO4, plates were aspirated and washed two times with 200 μl 0.9% (w/v) NaCl. Incorporation of ^33P was determined with a microplate scintillation counter (Microbeta, Wallac).
All assays were performed with a BeckmanCoulter/SAGIAN™ Core System.
For each plate, the median value of the cpm of the wells with complete reaction cocktails, but without kinase or compound to be tested, was defined as “low control” (n=8). This value reflects unspecific binding of radioactivity to the plate in the absence of protein kinase but in the presence of the substrate. Additionally, for each plate the median value of the cpm of the wells with the complete reaction cocktail, but without any compound, was taken as the “high control”, i.e., full activity in the absence of any inhibitor (n=8). The difference between high and low control of was taken as 100% activity for each kinase. As part of the data evaluation the “low control” value from a particular plate was subtracted from the “high control” value as well as from all 80 “compound values” of the corresponding plate. The residual activity (in %) for each compound well was calculated by using the following formula: Res. Activity (%)=100×[(cpm of compound−low control)/(high control−low control)].

[3] = Table 4, mean over cell lines, read-out: IC50 μM growth inhibition (MTT test)
[4] = mean over the cancer cell lines, MTT test, read-out: IC50 Mean ± SEM
[5] = Homo sapiens, OE21, 72 hours of incubation
[6] = Homo sapiens, Table 4, mean over cell lines, read-out: IC50 μM growth inhibition (MTT test)
[7] = Homo sapiens, mean over the cancer cell lines, MTT test, read-out: IC50 Mean ± SEM
[8] = Homo sapiens, Hs 683, 72 hours of incubation

SMILES | IC50 ([1]; 72 hours of incubation) [µM] | IC50 [2, 3] [µM] | IC50 [2, 4] [µM] | IC50 (T98G glioma cells) [µM] | IC50 (Hs683 glioma cells; 72 hours of incubation) [µM] | IC50 (DYRK1A protein kinase) [µM] | IC50 [1, 5] [µM] | IC50 [2, 6] [µM] | IC50 [2, 7] [µM] | IC50 (T98G glioma cells; Homo sapiens, T98G) [µM] | IC50 (Hs683 glioma cells; [8]) [µM]
Cc1nccc2c1[nH]c1cc(OCc3cccnc3)ccc12 [JR212] | 28 ± 2 | 29 | 29 ± 1 | 29 ± 2 | 30 ± 3 | 10 | – | – | – | – | –
Cc1c2c(cc[n+]1Cc1ccccc1)c1ccc(OCc3ccccc3)cc1n2Cc1ccccc1.[Br-] [CV21/JR95, 1-methyl-2-benzyl-7-benzyloxy-9-benzyl-β-carbolin-2-ium bromide] | – | – | – | – | – | 21.2 | 1.3 ± 0.2 | 0.7 | 0.7 ± 0.2 | 0.48 ± 0.02 | 0.49 ± 0.05
COCCOc1ccc2c(c1)[nH]c1c(C)nccc12 [JR220] | 53 ± 4 | 60 | 60 ± 3 | 61 ± 7 | 53 ± 6 | 15.5 | – | – | – | – | –
Cc1nccc2c3ccc(OCc4ccccc4)cc3n(Cc3ccccc3)c12 [CV9/JR84, 1-methyl-7-benzyloxy-9-benzyl-β-carboline] | – | – | – | – | – | 16.3 | 28 ± 3 | 31 | 31 ± 4 | 36 ± 2 | 33 ± 1

— patent publication US9168247B2, “Beta carboline derivatives useful in the treatment of proliferative disorders” (FACULTES UNIVERSITAIRES NOTRE DAME DE LA PAIX, priority 2010, dated 2015)
